The text below walks through data of patent US20170266151A1, “Novel salts of 3-[(DIMETHYLAMINO)METHYL]-N--1-BENZOFURAN-2-CARBOXAMIDE, related crystalline forms, method for preparing the same and pharmaceutical compositions containing the same” (Pharmacyclics LLC, priority 2014, published 2017).

Data set [1] is described as follows: Hygroscopicity by dynamic vapor sorption (DVS). The class given is physicochemical. The method, then: The hygroscopicity of the crystalline forms of the salts of 3-[(dimethylamino)methyl]-N-{2-[4-(hydroxycarbamoyl)phenoxy]ethyl}-1-benzofuran-2-carboxamide according to the invention was evaluated by dynamic vapor sorption (DVS) using a DVS Intrinsic apparatus. A sample of 5 to 10 mg of the substance, weighed accurately, was disposed in a DVS sample pan operating at 25° C. under controlled humidity. The mass variation was recorded on the basis of a balancing bearing at 50% relative humidity, followed by three subsequent linear phases of increasing (from 50 to 90%), of decreasing (from 90 to 0%) and of increasing (from 0 to 50%) the relative humidity at a speed of 10% per hour. The relative humidity was maintained constant when it reached either 0, or 50, or 90% relative humidity, until the mass variation was less than 0.002% per minute, with a time limit of 15 hours.
The hygroscopicity of the hemipentahydrate crystalline form of the hydrogen sulfate of 3-[(dimethylamino)methyl]-N-{2-[4-(hydroxycarbamoyl)phenoxy]ethyl}-1-benzofuran-2-carboxamide according to the invention was evaluated by dynamic vapor sorption (DVS) using a DVS Intrinsic apparatus. A sample of 5 to 10 mg of the substance, weighed accurately, was disposed in a DVS sample pan operating at 25° C. under controlled humidity. The mass variation was recorded on the basis of a balancing bearing at 50% relative humidity, followed by three subsequent linear phases of increasing (from 50 to 90%), of decreasing (from 90 to 0%) and of increasing (from 0 to 50%) the relative humidity at a speed of 10% per hour. The relative humidity was maintained constant when it reached either 0, or 50, or 90 % relative humidity, until the mass variation is less than 0.002% per minute, with a time limit of 15 hours.

For data set [2] the following is noted: salt of WO 2004/092115; use on industrial scale difficult; cited from earlier work.
The next data set concerns tumor cells. The conditions noted are these: tumor cells cultured in vitro; Buggy et al. 2006; cited from earlier work.
A further data set concerns xenograft models. As to conditions: Buggy et al. 2006; cited from earlier work.

Bounds are passed on as bounds.

For the molecule `CN(C)Cc1c(C(=O)NCCOc2ccc(C(=O)NO)cc2)oc2ccccc12.O=C(O)C(=O)O` [Example 3, Oxalate of 3-[(dimethylamino)methyl]-N-{2-[4-(hydroxycarbamoyl)phenoxy]ethyl}-1-benzofuran-2-carboxamide], the “mass variation detected by DVS analysis” value in data set [1] (exposure to between 0 and 90% relative humidity at 25° C.) was “less than 0.2%”. Consider `CN(C)Cc1c(C(=O)NCCOc2ccc(C(=O)NO)cc2)oc2ccccc12.Cl` [hydrochloride, hydrochloride of 3-[(dimethylamino)methyl]-N-{2-[4-(hydroxycarbamoyl)phenoxy]ethyl}-1-benzofuran-2-carboxamide], for which the hygroscopic properties result in data set [2] was “hygroscopic”. Turning to “Hydrogen Sulfate of 3-[(dimethylamino)methyl]-N-{2-[4-(hydroxycarbamoyl)phenoxy]ethyl}-1-benzofuran-2-carboxamide [Example 5]”, the “relative humidity beyond which converted into hemiheptahydrate hydrogen sulfate” value in data set [1] (DVS, 25° C., increasing humidity) is given as > 70 % relative humidity.

With “Hydrogen Sulfate of 3-[(dimethylamino)methyl]-N-{2-[4-(hydroxycarbamoyl)phenoxy]ethyl}-1-benzofuran-2-carboxamide [Example 6]”, the “relative humidity below which dehydrated completely” value in data set [1] (DVS, 25° C., decreasing humidity to 0%) is “Below 20 % relative humidity”. For the molecule `CN(C)Cc1c(C(=O)NCCOc2ccc(C(=O)NO)cc2)oc2ccccc12` [abexinostat, 3-[(Dimethylamino)methyl]-N-{2-[4-(hydroxycarbamoyl)phenoxy]ethyl}-1-benzofuran-2-carboxamide], in the data set with tumor cells, the effect on apoptosis entry is on record as “induce apoptosis” and the “effect on cell growth” value was “inhibit cell growth”. In the data set with xenograft models, the “effect on tumor growth” value is “inhibit tumor growth”.
